Data as given in the supplement of paper PMC10307832.

What was measured:
Assay in all cases: relative viability (nuclei count vs DMSO), 5 days (fraction); higher = more cells survive
SK-MES-1 = test system: SK-MES-1
How it was run: (§1)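 Lung cancer cell lines were pin-tool dosed in 1536-well plates on the day after seeding, with either a lone drug or a fixed anchor-drug dose plus five library-drug doses (not always all listed) in √10 steps. Nuclei were counted on 4× images after 5 days. Relative viability is the ratio of treated-well to vehicle-well nuclei counts, with each value a median of duplicate plates.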

SW 900 = test system: SW 900
How it was run: as §1

LU99A = test system: LU99A
How it was run: as §1

ABC-1 = test system: ABC-1
How it was run: as §1

NCI-H2228 = test system: NCI-H2228
How it was run: as §1

SK-LU-1 = test system: SK-LU-1
How it was run: as §1

LXF-289 = test system: LXF-289
How it was run: as §1

HOP-62 = test system: HOP-62
How it was run: as §1

NCI-H1944 = test system: NCI-H1944
How it was run: as §1

NCI-H1993 = test system: NCI-H1993
How it was run: as §1

A-427 = test system: A-427
How it was run: as §1

NCI-H596 = test system: NCI-H596
How it was run: as §1

NCI-H2009 = test system: NCI-H2009
How it was run: as §1

NCI-H1792 = test system: NCI-H1792
How it was run: as §1

SW 1573 = test system: SW 1573
How it was run: as §1

NCI-H1793 = test system: NCI-H1793
How it was run: as §1

PC-3 [JPC-3] = test system: PC-3 [JPC-3]
How it was run: as §1

NCI-H2170 = test system: NCI-H2170
How it was run: as §1

EMC-BAC-2 = test system: EMC-BAC-2
How it was run: as §1

HARA = test system: HARA
How it was run: as §1

COR-L23 = test system: COR-L23
How it was run: as §1

NCI-H3122 = test system: NCI-H3122
How it was run: as §1

LK-2 = test system: LK-2
How it was run: as §1

NCI-H727 = test system: NCI-H727
How it was run: as §1

With `COc1cc(N2CCC(C(N)=O)CC2)ccc1Nc1nc(N)c(Cl)c(Nc2ccccc2S(=O)(=O)C(C)C)n1` [HG-5-88-01] + O=C(c1cc(Cc2n[nH]c(=O)c3ccccc23)ccc1F)N1CCN(C(=O)C2CC2)CC1 [Olaparib] (partner 8 µM) the relative viability (SK-MES-1; first compound 0.04 µM) was 0.657, the relative viability (SK-MES-1; first compound 0.1265 µM) was 0.658 and the relative viability (SK-MES-1; first compound 0.4 µM) was 0.689. The relative viability (SK-MES-1; first compound 1.265 µM) was 0.508, the relative viability (SK-MES-1; first compound 4 µM) was 0.564 and the relative viability (SW 900; first compound 0.04 µM) was 0.954. The relative viability (SW 900; first compound 0.1265 µM) was 1.06, the relative viability (SW 900; first compound 0.4 µM) was 0.867 and the relative viability (SW 900; first compound 1.265 µM) was 0.848. For the same compound, the relative viability (SW 900; first compound 4 µM) was 0.631, the relative viability (LU99A; first compound 0.04 µM) was 0.266 and the relative viability (LU99A; first compound 0.1265 µM) was 0.257. It also gave a relative viability (LU99A; first compound 0.4 µM) of 0.208, a relative viability (LU99A; first compound 1.265 µM) of 0.269 and a relative viability (LU99A; first compound 4 µM) of 0.315. The relative viability (ABC-1; first compound 0.04 µM) was 1, the relative viability (ABC-1; first compound 0.1265 µM) was 0.494 and the relative viability (ABC-1; first compound 0.4 µM) was 0.688. It also gave a relative viability (ABC-1; first compound 1.265 µM) of 0.686, a relative viability (ABC-1; first compound 4 µM) of 0.589 and a relative viability (NCI-H2228; first compound 0.04 µM) of 0.538. For the same compound, the relative viability (NCI-H2228; first compound 0.1265 µM) was 0.36, the relative viability (NCI-H2228; first compound 0.4 µM) was 0.424 and the relative viability (NCI-H2228; first compound 1.265 µM) was 0.227. The relative viability (NCI-H2228; first compound 4 µM) was 0.253, the relative viability (SK-LU-1; first compound 0.04 µM) was 0.447 and the relative viability (SK-LU-1; first compound 0.1265 µM) was 0.442. For the same compound, the relative viability (SK-LU-1; first compound 0.4 µM) was 0.444, the relative viability (SK-LU-1; first compound 1.265 µM) was 0.417 and the relative viability (SK-LU-1; first compound 4 µM) was 0.295. The relative viability (LXF-289; first compound 0.04 µM) was 0.988, the relative viability (LXF-289; first compound 0.1265 µM) was 1.13 and the relative viability (LXF-289; first compound 0.4 µM) was 1.02. The relative viability (LXF-289; first compound 1.265 µM) was 1.07, the relative viability (LXF-289; first compound 4 µM) was 1.08 and the relative viability (HOP-62; first compound 0.04 µM) was 0.426. The relative viability (HOP-62; first compound 0.1265 µM) was 0.511, the relative viability (HOP-62; first compound 0.4 µM) was 0.396 and the relative viability (HOP-62; first compound 1.265 µM) was 0.538. For the same compound, the relative viability (HOP-62; first compound 4 µM) was 0.283, the relative viability (NCI-H1944; first compound 0.04 µM) was 0.414 and the relative viability (NCI-H1944; first compound 0.1265 µM) was 0.374. For the same compound, the relative viability (NCI-H1944; first compound 0.4 µM) was 0.479, the relative viability (NCI-H1944; first compound 1.265 µM) was 0.466 and the relative viability (NCI-H1944; first compound 4 µM) was 0.466. It also gave a relative viability (NCI-H1993; first compound 0.04 µM) of 1.12, a relative viability (NCI-H1993; first compound 0.1265 µM) of 1.03 and a relative viability (NCI-H1993; first compound 0.4 µM) of 0.949. It also gave a relative viability (NCI-H1993; first compound 4 µM) of 0.842, a relative viability (A-427; first compound 0.04 µM) of 0.652 and a relative viability (A-427; first compound 0.1265 µM) of 0.807. The relative viability (A-427; first compound 0.4 µM) was 0.762, the relative viability (A-427; first compound 1.265 µM) was 0.746 and the relative viability (A-427; first compound 4 µM) was 0.513. For the same compound, the relative viability (NCI-H596; first compound 0.04 µM) was 0.729, the relative viability (NCI-H596; first compound 0.1265 µM) was 0.734 and the relative viability (NCI-H596; first compound 0.4 µM) was 0.682. The relative viability (NCI-H596; first compound 1.265 µM) was 0.777, the relative viability (NCI-H596; first compound 4 µM) was 0.694 and the relative viability (NCI-H2009; first compound 0.04 µM) was 0.684. The relative viability (NCI-H2009; first compound 0.1265 µM) was 0.651, the relative viability (NCI-H2009; first compound 0.4 µM) was 0.687 and the relative viability (NCI-H2009; first compound 1.265 µM) was 0.685. It also gave a relative viability (NCI-H2009; first compound 4 µM) of 0.684, a relative viability (NCI-H1792; first compound 0.04 µM) of 0.513 and a relative viability (NCI-H1792; first compound 0.1265 µM) of 0.424. For the same compound, the relative viability (NCI-H1792; first compound 0.4 µM) was 0.434, the relative viability (NCI-H1792; first compound 1.265 µM) was 0.397 and the relative viability (NCI-H1792; first compound 4 µM) was 0.484. It also gave a relative viability (SW 1573; first compound 0.04 µM) of 0.562, a relative viability (SW 1573; first compound 0.1265 µM) of 0.554 and a relative viability (SW 1573; first compound 0.4 µM) of 0.438. For the same compound, the relative viability (SW 1573; first compound 1.265 µM) was 0.368, the relative viability (SW 1573; first compound 4 µM) was 0.375 and the relative viability (NCI-H1793; first compound 0.04 µM) was 0.878. For the same compound, the relative viability (NCI-H1793; first compound 0.1265 µM) was 0.84, the relative viability (NCI-H1793; first compound 0.4 µM) was 0.848 and the relative viability (NCI-H1793; first compound 1.265 µM) was 0.651. The relative viability (NCI-H1793; first compound 4 µM) was 0.847, the relative viability (PC-3 [JPC-3]; first compound 0.04 µM) was 1.15 and the relative viability (PC-3 [JPC-3]; first compound 0.1265 µM) was 1.14. The relative viability (PC-3 [JPC-3]; first compound 0.4 µM) was 1.04, the relative viability (PC-3 [JPC-3]; first compound 1.265 µM) was 0.379 and the relative viability (PC-3 [JPC-3]; first compound 4 µM) was 0.506. For the same compound, the relative viability (NCI-H2170; first compound 0.04 µM) was 0.64, the relative viability (NCI-H2170; first compound 0.1265 µM) was 0.669 and the relative viability (NCI-H2170; first compound 0.4 µM) was 0.605. For the same compound, the relative viability (NCI-H2170; first compound 1.265 µM) was 0.53, the relative viability (NCI-H2170; first compound 4 µM) was 0.545 and the relative viability (EMC-BAC-2; first compound 0.04 µM) was 0.482. It also gave a relative viability (EMC-BAC-2; first compound 0.1265 µM) of 0.526, a relative viability (EMC-BAC-2; first compound 0.4 µM) of 0.615 and a relative viability (EMC-BAC-2; first compound 1.265 µM) of 0.459. It also gave a relative viability (EMC-BAC-2; first compound 4 µM) of 0.46, a relative viability (HARA; first compound 0.04 µM) of 1.07 and a relative viability (HARA; first compound 0.1265 µM) of 1.02. For the same compound, the relative viability (HARA; first compound 0.4 µM) was 0.456, the relative viability (HARA; first compound 1.265 µM) was 0.526 and the relative viability (HARA; first compound 4 µM) was 0.862. For the same compound, the relative viability (COR-L23; first compound 0.04 µM) was 0.336, the relative viability (COR-L23; first compound 0.1265 µM) was 0.386 and the relative viability (COR-L23; first compound 0.4 µM) was 0.28. It also gave a relative viability (COR-L23; first compound 1.265 µM) of 0.319, a relative viability (COR-L23; first compound 4 µM) of 0.246 and a relative viability (NCI-H3122; first compound 0.04 µM) of 0.594. It also gave a relative viability (NCI-H3122; first compound 0.1265 µM) of 0.403, a relative viability (NCI-H3122; first compound 0.4 µM) of 0.3 and a relative viability (NCI-H3122; first compound 1.265 µM) of 0.285. For the same compound, the relative viability (NCI-H3122; first compound 4 µM) was 0.15, the relative viability (LK-2; first compound 0.04 µM) was 0.941 and the relative viability (LK-2; first compound 0.1265 µM) was 0.645. It also gave a relative viability (LK-2; first compound 0.4 µM) of 0.718, a relative viability (LK-2; first compound 4 µM) of 0.501 and a relative viability (NCI-H727; first compound 0.04 µM) of 0.715. The relative viability (NCI-H727; first compound 0.1265 µM) was 0.705, the relative viability (NCI-H727; first compound 0.4 µM) was 0.827 and the relative viability (NCI-H727; first compound 4 µM) was 0.572.
